Where a SMILES comes first, the peptide text is derived from it. The star is where a group is joined. X1 = O=C(O)c1ccc2c(c1)nc(OCCCCCCCCC(=O)*)c1ccncc12
How the values were obtained:
[1] = target: Mitogen-activated protein kinase 8 (Homo sapiens) (UniProt P45983); test: Inhibition of human JNK1 assessed as residual activity at 1 uM in presence of [33P]ATP by filter binding assay relative to control
[2] = target: AMP-activated protein kinase, AMPK (Homo sapiens) (UniProt P54646+O43741+P54619+Q9UGJ0+Q9Y478+Q13131+Q9UGI9); test: Inhibition of human AMPK assessed as residual activity at 1 uM in presence of 33P-ATP by filter-binding assay relative to control
[3] = target: Angiopoietin-1 receptor (Homo sapiens) (UniProt Q02763); test: Inhibition of human TIE2 assessed as residual activity at 1 uM in presence of 33P-ATP by filter-binding assay relative to control
[4] = target: Mitogen-activated protein kinase kinase kinase 9 (Homo sapiens) (UniProt P80192); test: Inhibition of human MLK1 assessed as residual activity at 1 uM in presence of 33P-ATP by filter-binding assay relative to control
[5] = target: Dual specificity protein kinase TTK (Homo sapiens) (UniProt P33981); test: Inhibition of human TTK assessed as residual activity at 1 uM in presence of 33P-ATP by filter-binding assay relative to control
[6] = target: Death-associated protein kinase 1 (Homo sapiens) (UniProt P53355); test: Inhibition of human DAPK1 assessed as residual activity at 1 uM in presence of 33P-ATP by filter-binding assay relative to control
[7] = target: Serine/threonine-protein kinase tousled-like 1 (Homo sapiens) (UniProt Q9UKI8); test: Inhibition of human TLK1 assessed as residual activity at 1 uM in presence of 33P-ATP by filter-binding assay relative to control
[8] = target: Serine/threonine-protein kinase Nek2 (Homo sapiens) (UniProt P51955); test: Inhibition of human NEK2a assessed as residual activity at 1 uM in presence of [33P]ATP by filter binding assay relative to control
[9] = target: Mitogen-activated protein kinase 9 (Homo sapiens) (UniProt P45984); test: Inhibition of human JNK2 assessed as residual activity at 1 uM in presence of [33P]ATP by filter binding assay relative to control
[10] = target: Mitogen-activated protein kinase kinase kinase 7 (Homo sapiens) (UniProt O43318); test: Inhibition of human TAK1 assessed as residual activity at 1 uM in presence of [33P]ATP by filter binding assay relative to control
[11] = target: MAP kinase-activated protein kinase 3 (Homo sapiens) (UniProt Q16644); test: Inhibition of human MAPKAP-K3 assessed as residual activity at 1 uM in presence of [33P]ATP by filter binding assay relative to control
[12] = target: Serine/threonine-protein kinase Sgk1 (Homo sapiens) (UniProt O00141); test: Inhibition of human SGK1 assessed as residual activity at 1 uM in presence of [33P]ATP by filter binding assay relative to control
[13] = target: Serine/threonine-protein kinase pim-3 (Homo sapiens) (UniProt Q86V86); test: Inhibition of human PIM3 assessed as residual activity at 1 uM in presence of [33P]ATP by filter binding assay relative to control
[14] = target: Insulin receptor (Homo sapiens) (UniProt P06213); test: Inhibition of human IR assessed as residual activity at 1 uM in presence of [33P]ATP by filter binding assay relative to control
[15] = target: Homeodomain-interacting protein kinase 1 (Homo sapiens) (UniProt Q86Z02); test: Inhibition of human HIPK1 assessed as residual activity at 1 uM in presence of [33P]ATP by filter binding assay relative to control
[16] = target: Ephrin type-B receptor 4 (Homo sapiens) (UniProt P54760); test: Inhibition of human EPHB4 assessed as residual activity at 1 uM in presence of [33P]ATP by filter binding assay relative to control
[17] = target: Receptor tyrosine-protein kinase erbB-4 (Homo sapiens) (UniProt Q15303); test: Inhibition of human HER4 assessed as residual activity at 1 uM in presence of [33P]ATP by filter binding assay relative to control
[18] = target: Serine/threonine-protein kinase ULK2 (Homo sapiens) (UniProt Q8IYT8); test: Inhibition of human ULK2 assessed as residual activity at 1 uM in presence of [33P]ATP by filter binding assay relative to control
[19] = target: Protein kinase C gamma type (Homo sapiens) (UniProt P05129); test: Inhibition of human PKCgamma assessed as residual activity at 1 uM in presence of [33P]ATP by filter binding assay relative to control
[20] = target: Protein kinase C zeta type (Homo sapiens) (UniProt Q05513); test: Inhibition of human PKCZ assessed as residual activity at 1 uM in presence of [33P]ATP by filter binding assay relative to control
[21] = target: Mitogen-activated protein kinase kinase kinase kinase 3 (Homo sapiens) (UniProt Q8IVH8); test: Inhibition of human MAP4K3 assessed as residual activity at 1 uM in presence of [33P]ATP by filter binding assay relative to control
[22] = target: Tyrosine-protein kinase ABL1 (Homo sapiens) (UniProt P00519); test: Inhibition of human ABL assessed as residual activity at 1 uM in presence of [33P]ATP by filter binding assay relative to control
[23] = target: Platelet-derived growth factor receptor alpha (Homo sapiens) (UniProt P16234); test: Inhibition of human PDGFRA assessed as residual activity at 1 uM in presence of [33P]ATP by filter binding assay relative to control
[24] = target: Mitogen-activated protein kinase kinase kinase 1 (Homo sapiens) (UniProt Q13233); test: Inhibition of human MEKK1 assessed as residual activity at 1 uM in presence of [33P]ATP by filter binding assay relative to control
[25] = target: CDK9/cyclin T1 (Homo sapiens) (UniProt O60563+P50750); test: Inhibition of human CDK9-CyclinT1 assessed as residual activity at 1 uM in presence of [33P]ATP by filter binding assay relative to control; assay type: protein-complex assay
[26] = target: Mitogen-activated protein kinase 13 (Homo sapiens) (UniProt O15264); test: Inhibition of human P38d MAPK assessed as residual activity at 1 uM in presence of [33P]ATP by filter binding assay relative to control
[27] = target: Serine/threonine-protein kinase OSR1 (Homo sapiens) (UniProt O95747); test: Inhibition of human OSR1 assessed as residual activity at 1 uM in presence of [33P]ATP by filter binding assay relative to control
[28] = target: Serine/threonine-protein kinase 16 (Homo sapiens) (UniProt O75716); test: Inhibition of human MPSK1 assessed as residual activity at 1 uM in presence of [33P]ATP by filter binding assay relative to control
[29] = system: Serine/threonine-protein kinase MAP4K2 (Homo sapiens); test: Inhibition of human GCK assessed as residual activity at 1 uM in presence of 33P-ATP by filter-binding assay relative to control

Mitogen-activated protein kinase kinase kinase kinase 3 (Homo sapiens), sequence (Q8IVH8 whole entry): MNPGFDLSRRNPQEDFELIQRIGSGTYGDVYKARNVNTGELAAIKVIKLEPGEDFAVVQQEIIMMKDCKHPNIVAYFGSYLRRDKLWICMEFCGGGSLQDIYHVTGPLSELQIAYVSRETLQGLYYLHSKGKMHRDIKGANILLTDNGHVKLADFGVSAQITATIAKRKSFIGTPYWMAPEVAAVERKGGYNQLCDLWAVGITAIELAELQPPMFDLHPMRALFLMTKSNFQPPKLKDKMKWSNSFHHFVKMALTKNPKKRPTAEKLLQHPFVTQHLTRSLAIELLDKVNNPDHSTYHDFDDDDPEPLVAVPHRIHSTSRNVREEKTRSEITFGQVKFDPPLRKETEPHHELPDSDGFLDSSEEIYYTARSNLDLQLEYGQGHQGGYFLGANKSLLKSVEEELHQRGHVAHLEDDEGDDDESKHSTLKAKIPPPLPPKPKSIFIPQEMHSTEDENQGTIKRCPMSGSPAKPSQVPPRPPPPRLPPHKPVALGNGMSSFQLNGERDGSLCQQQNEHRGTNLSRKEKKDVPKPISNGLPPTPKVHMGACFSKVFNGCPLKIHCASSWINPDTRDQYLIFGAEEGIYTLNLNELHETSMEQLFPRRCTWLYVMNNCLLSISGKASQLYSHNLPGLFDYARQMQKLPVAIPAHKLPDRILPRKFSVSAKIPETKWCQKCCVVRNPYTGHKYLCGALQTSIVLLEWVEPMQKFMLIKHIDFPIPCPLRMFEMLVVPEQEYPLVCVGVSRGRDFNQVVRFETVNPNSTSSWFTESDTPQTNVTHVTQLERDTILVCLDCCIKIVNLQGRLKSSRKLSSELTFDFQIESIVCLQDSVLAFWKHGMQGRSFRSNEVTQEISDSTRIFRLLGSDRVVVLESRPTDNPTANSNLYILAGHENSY
Protein kinase C zeta type (Homo sapiens), sequence (Q05513 whole entry): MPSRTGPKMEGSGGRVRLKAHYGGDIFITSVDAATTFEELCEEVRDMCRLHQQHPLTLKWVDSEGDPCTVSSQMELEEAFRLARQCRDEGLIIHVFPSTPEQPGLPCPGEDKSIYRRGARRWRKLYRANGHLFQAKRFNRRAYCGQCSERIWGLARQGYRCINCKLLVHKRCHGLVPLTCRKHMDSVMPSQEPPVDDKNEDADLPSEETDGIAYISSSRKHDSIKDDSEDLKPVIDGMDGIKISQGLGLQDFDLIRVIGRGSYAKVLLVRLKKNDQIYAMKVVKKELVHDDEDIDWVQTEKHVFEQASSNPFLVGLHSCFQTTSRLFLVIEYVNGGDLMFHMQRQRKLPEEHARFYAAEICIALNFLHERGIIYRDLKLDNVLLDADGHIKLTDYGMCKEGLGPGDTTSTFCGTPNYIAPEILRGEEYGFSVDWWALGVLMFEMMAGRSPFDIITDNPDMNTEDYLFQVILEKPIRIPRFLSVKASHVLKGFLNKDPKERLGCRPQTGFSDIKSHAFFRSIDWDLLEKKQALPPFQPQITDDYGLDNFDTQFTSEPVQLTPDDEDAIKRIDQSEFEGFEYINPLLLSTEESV
Serine/threonine-protein kinase OSR1 (Homo sapiens), sequence (O95747 2-527 limits assumed): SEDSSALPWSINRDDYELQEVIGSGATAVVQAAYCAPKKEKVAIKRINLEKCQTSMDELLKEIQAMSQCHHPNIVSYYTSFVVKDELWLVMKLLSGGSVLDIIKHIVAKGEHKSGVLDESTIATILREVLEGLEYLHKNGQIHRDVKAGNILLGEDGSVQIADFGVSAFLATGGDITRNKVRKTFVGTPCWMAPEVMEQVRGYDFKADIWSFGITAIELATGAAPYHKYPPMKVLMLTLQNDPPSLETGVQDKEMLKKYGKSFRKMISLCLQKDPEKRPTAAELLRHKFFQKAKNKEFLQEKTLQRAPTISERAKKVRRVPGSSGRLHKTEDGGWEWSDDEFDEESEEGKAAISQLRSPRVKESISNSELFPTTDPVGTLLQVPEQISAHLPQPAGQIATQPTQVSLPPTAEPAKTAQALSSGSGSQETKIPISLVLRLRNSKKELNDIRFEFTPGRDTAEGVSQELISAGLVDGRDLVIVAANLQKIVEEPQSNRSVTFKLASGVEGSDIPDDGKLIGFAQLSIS
Dual specificity protein kinase TTK (Homo sapiens), sequence (P33981 whole entry): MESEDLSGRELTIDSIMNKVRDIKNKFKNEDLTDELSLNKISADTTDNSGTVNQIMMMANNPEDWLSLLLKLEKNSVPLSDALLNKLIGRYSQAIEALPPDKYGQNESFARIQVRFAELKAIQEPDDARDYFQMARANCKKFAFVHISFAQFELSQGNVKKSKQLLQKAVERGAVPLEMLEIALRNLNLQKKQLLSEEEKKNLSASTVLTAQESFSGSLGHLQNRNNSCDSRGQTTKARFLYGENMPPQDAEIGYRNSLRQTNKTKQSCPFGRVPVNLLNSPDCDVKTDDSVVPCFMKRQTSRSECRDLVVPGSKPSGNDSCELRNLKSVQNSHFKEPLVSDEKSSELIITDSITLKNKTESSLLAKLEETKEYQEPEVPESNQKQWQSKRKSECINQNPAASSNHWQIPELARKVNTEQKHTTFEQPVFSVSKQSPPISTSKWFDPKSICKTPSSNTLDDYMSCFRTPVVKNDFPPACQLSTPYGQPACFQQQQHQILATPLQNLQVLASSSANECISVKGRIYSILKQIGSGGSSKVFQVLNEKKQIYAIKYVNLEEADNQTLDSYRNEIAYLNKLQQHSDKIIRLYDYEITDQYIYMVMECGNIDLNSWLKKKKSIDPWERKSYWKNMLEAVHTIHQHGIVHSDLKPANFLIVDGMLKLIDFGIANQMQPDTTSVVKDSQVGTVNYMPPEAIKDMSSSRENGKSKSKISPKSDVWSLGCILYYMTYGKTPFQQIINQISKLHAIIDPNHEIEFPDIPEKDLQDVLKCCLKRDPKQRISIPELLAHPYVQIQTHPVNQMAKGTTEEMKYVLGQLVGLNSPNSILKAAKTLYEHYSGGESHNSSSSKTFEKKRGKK
Mitogen-activated protein kinase kinase kinase 7 (Homo sapiens), sequence (O43318 whole entry): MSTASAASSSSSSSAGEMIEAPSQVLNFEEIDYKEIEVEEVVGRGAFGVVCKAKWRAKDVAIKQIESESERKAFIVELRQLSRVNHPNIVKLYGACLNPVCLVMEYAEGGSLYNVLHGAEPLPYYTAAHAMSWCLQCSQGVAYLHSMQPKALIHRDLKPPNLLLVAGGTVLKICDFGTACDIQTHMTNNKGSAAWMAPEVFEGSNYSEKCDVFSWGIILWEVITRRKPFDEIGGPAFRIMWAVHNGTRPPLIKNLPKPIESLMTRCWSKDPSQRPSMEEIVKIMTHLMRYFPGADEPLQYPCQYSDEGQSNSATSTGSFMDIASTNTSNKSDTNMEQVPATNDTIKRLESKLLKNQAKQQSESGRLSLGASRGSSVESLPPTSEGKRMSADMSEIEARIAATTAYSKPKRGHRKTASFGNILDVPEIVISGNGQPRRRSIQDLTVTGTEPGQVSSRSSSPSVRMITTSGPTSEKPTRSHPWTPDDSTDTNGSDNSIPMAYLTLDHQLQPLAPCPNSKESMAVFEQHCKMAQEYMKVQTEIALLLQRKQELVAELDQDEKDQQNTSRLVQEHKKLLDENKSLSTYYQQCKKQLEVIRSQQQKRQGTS
MAP kinase-activated protein kinase 3 (Homo sapiens), sequence (Q16644 whole entry, looked up): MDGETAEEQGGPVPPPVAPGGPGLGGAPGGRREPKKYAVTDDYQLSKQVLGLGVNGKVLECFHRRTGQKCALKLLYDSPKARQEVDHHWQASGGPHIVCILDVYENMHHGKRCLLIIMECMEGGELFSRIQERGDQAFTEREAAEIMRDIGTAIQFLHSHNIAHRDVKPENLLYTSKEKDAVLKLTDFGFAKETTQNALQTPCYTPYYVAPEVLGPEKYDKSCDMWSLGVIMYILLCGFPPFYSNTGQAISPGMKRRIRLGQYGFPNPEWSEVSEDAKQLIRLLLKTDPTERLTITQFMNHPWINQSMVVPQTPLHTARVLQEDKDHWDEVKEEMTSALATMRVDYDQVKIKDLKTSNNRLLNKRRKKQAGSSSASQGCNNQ
Tyrosine-protein kinase ABL1 (Homo sapiens), sequence (P00519 whole entry): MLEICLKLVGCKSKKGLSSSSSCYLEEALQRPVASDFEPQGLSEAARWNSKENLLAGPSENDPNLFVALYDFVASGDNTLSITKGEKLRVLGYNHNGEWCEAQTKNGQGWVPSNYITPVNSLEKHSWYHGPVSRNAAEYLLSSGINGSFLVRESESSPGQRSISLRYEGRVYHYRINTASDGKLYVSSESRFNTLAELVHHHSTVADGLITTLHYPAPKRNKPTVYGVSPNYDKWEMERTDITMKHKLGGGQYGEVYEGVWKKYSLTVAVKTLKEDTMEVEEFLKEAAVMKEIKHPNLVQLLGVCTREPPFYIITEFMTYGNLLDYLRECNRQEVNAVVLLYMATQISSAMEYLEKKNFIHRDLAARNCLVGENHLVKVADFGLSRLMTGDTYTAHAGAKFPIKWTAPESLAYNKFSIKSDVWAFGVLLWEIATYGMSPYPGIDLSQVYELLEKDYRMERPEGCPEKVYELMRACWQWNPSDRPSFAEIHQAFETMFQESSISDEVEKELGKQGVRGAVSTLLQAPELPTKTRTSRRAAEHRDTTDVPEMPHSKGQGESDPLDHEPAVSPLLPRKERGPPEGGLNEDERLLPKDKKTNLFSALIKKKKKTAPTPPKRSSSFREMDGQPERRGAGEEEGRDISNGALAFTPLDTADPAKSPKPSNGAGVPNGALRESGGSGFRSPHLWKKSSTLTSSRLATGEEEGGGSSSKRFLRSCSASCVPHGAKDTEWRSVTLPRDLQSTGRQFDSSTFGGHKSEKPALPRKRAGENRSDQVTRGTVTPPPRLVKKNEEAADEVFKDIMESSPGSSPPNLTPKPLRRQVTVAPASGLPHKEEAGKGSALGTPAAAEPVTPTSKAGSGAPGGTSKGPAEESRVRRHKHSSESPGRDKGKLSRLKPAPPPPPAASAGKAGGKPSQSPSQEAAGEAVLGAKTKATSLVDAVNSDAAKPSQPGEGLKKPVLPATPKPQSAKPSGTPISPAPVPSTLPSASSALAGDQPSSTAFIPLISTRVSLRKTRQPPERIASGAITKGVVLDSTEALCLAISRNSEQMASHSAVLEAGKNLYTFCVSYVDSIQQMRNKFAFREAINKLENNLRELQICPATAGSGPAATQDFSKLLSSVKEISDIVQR

NCCCC[C@H](NC(=O)[C@H](CC(=O)O)NC(=O)[C@H](CC(=O)O)NC(=O)[C@H](CC(=O)O)NC(=O)[C@H](CC(=O)O)NC(=O)[C@H](CC(=O)O)NC(=O)[C@H](CC(=O)O)NC(=O)CCCCCCCCOc1nc2cc(C(=O)O)ccc2c2cnccc12)C(=O)O (X1-DDDDDDK-OH)
Activity [1]: 91%
Activity [2]: 11%
Activity [3]: 41%
Activity [4]: 42%
Activity [5]: 48%
Activity [6]: 50%
Activity [7]: 63%
Activity [8]: 76%
Activity [9]: 79%
Activity [10]: 80%
Activity [11]: 82%
Activity [12]: 84%
Activity [13]: 84%
Activity [14]: 85%
Activity [15]: 86%
Activity [16]: 86%
Activity [17]: 90%
Activity [18]: 93%
Activity [19]: 94%
Activity [20]: 95%
Activity [21]: 95%
Activity [22]: 100%
Activity [23]: 102%
Activity [24]: 106%
Activity [25]: 108%
Activity [26]: 109%
Activity [27]: 111%
Activity [28]: 118%
Activity [29]: 15%

From ChEMBL document CHEMBL4049403, “Oligo-aspartic acid conjugates with benzo[c][2,6]naphthyridine-8-carboxylic acid scaffold as picomolar inhibitors of CK2” (Bioorg Med Chem, 2017)
